According to ChEMBL document CHEMBL1201861, “Genomics of Drug Sensitity in Cancer screening data, Wellcome Trust Sanger Institute”:
pIC50: −log10 of the molar value.

What was measured:
Assay in all cases: cells
[1] = tested on: HCC1569; type: functional, cell-based, Homo sapiens; details: hcc1569;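 also: growth inhibition of human HCC1569 cells, read out with a cell viability assay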
Description: SANGER: Inhibition of human HCC1569 cell growth in a cell viability assay.

[2] = tested on: Panc1005; type: functional, cell-based, Homo sapiens; details: panc1005;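 also: growth inhibition of human PANC-10-05 cells, measured by a cell viability assay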
Description: SANGER: Inhibition of human PANC-10-05 cell growth in a cell viability assay.

[3] = tested on: RCM-1; type: functional, cell-based, Homo sapiens; details: rcm-1;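 also: growth inhibition of the RCM-1 line, determined with a cell viability readout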
Description: SANGER: Inhibition of human RCM-1 cell growth in a cell viability assay.

[4] = tested on: KM12; type: functional, cell-based, Homo sapiens; details: km12;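 also: KM12 cell growth inhibition, read out with a cell viability assay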
Description: SANGER: Inhibition of human KM12 cell growth in a cell viability assay.

[5] = tested on: BCPAP; type: functional, cell-based, Homo sapiens; details: bcpap;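 also: growth inhibition of BCPAP cells, read out in a cell viability assay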
Description: SANGER: Inhibition of human BCPAP cell growth in a cell viability assay.

[6] = tested on: SIMA; type: functional, cell-based, Homo sapiens; details: sima;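 also: growth inhibition of SIMA cells, measured with a cell viability readout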
Description: SANGER: Inhibition of human SIMA cell growth in a cell viability assay.

[7] = tested on: A-431; type: functional, cell-based, Homo sapiens; details: a-431;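 also: growth inhibition of A-431 cells, determined with a cell viability read-out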
Description: SANGER: Inhibition of human A431 cell growth in a cell viability assay.

[8] = tested on: MFH-ino; type: functional, cell-based, Homo sapiens; details: mfh-ino;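 also: growth inhibition of human MFH-ino cells, read out by a cell viability assay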
Description: SANGER: Inhibition of human MFH-ino cell growth in a cell viability assay.

[9] = tested on: NCI-H2087; type: functional, cell-based, Homo sapiens; details: nci-h2087;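 also: growth inhibition determined with a cell viability readout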
Description: SANGER: Inhibition of human NCI-H2087 cell growth in a cell viability assay.

[10] = tested on: CAL-12T; type: functional, cell-based, Homo sapiens; details: cal-12t;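 also: growth inhibition of human CAL-12T cells, read out with a cell viability assay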
Description: SANGER: Inhibition of human CAL-12T cell growth in a cell viability assay.

[11] = tested on: Ca-Ski; type: functional, cell-based, Homo sapiens; details: ca-ski;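 also: cell viability assay measuring inhibition of Ca-Ski cell growth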
Description: SANGER: Inhibition of human Ca-Ski cell growth in a cell viability assay.

[12] = tested on: U-87 MG; type: functional, cell-based, Homo sapiens, U-87MG ATCC; details: u-87mg atcc;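 also: growth inhibition of the cells measured with a viability assay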
Description: SANGER: Inhibition of human U-87-MG cell growth in a cell viability assay.

[13] = tested on: SK-MEL3; type: functional, cell-based, Homo sapiens, SK-MEL-3; details: sk-mel-3;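 also: growth inhibition of human SK-MEL-3 cells, read out with a cell viability assay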
Description: SANGER: Inhibition of human SK-MEL-3 cell growth in a cell viability assay.

[14] = tested on: EVSA-T; type: functional, cell-based, Homo sapiens; details: evsa-t;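 also: growth inhibition of EVSA-T cells, read out with a cell viability assay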
Description: SANGER: Inhibition of human EVSA-T cell growth in a cell viability assay.

[15] = tested on: UACC-812; type: functional, cell-based, Homo sapiens; details: uacc-812
Description: SANGER: Inhibition of human UACC-812 cell growth in a cell viability assay.

[16] = tested on: MFM-223; type: functional, cell-based, Homo sapiens; details: mfm-223
Description: SANGER: Inhibition of human MFM-223 cell growth in a cell viability assay.

[17] = tested on: RT-112; type: functional, cell-based, Homo sapiens; details: rt-112
Description: SANGER: Inhibition of human RT-112 cell growth in a cell viability assay.

[18] = tested on: U-698-M; type: functional, cell-based, Homo sapiens; details: u-698-m
Description: SANGER: Inhibition of human U-698-M cell growth in a cell viability assay.

[19] = tested on: MHH-PREB-1; type: functional, cell-based, Homo sapiens; details: mhh-preb-1;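 also: cell viability assay measuring inhibition of proliferation of human MHH-PREB-1 cells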
Description: SANGER: Inhibition of human MHH-PREB-1 cell growth in a cell viability assay.

[20] = tested on: COR-L23; type: functional, cell-based, Homo sapiens; details: cor-l23;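 also: cell viability assay measuring how strongly compounds suppress growth of COR-L23 cells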
Description: SANGER: Inhibition of human COR-L23 cell growth in a cell viability assay.

[21] = tested on: MHH-NB-11; type: functional, cell-based, Homo sapiens; details: mhh-nb-11;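 also: growth inhibition of human MHH-NB-11 cells, read out by a cell viability assay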
Description: SANGER: Inhibition of human MHH-NB-11 cell growth in a cell viability assay.

[22] = tested on: PF-382; type: functional, cell-based, Homo sapiens; details: pf-382
Description: SANGER: Inhibition of human PF-382 cell growth in a cell viability assay.

[23] = tested on: NCI-H1522; type: functional, cell-based, Homo sapiens; details: nci-h1522;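 also: growth inhibition of NCI-H1522 cells, read out with a cell viability assay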
Description: SANGER: Inhibition of human NCI-H1522 cell growth in a cell viability assay.

[24] = tested on: SJRH30; type: functional, cell-based, Homo sapiens; details: sjrh30;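 also: growth inhibition of human SJRH30 cells, read out with a cell viability assay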
Description: SANGER: Inhibition of human SJRH30 cell growth in a cell viability assay.

[25] = tested on: IMR-5; type: functional, cell-based, Homo sapiens; details: imr-5;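 also: growth inhibition of human IMR-5 cells, read out with a cell viability assay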
Description: SANGER: Inhibition of human IMR-5 cell growth in a cell viability assay.

[26] = tested on: CAMA-1; type: functional, cell-based, Homo sapiens; details: cama-1;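 also: growth inhibition of CAMA-1 cells, read out with a cell viability assay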
Description: SANGER: Inhibition of human CAMA-1 cell growth in a cell viability assay.

[27] = tested on: SJSA-1; type: functional, cell-based, Homo sapiens; details: sjsa-1;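 also: growth inhibition of human SJSA-1 cells, read out through a cell viability measurement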
Description: SANGER: Inhibition of human SJSA-1 cell growth in a cell viability assay.

[28] = tested on: CHP-212; type: functional, cell-based, Homo sapiens; details: chp-212
Description: SANGER: Inhibition of human CHP-212 cell growth in a cell viability assay.

[29] = tested on: KMS-12-PE; type: functional, cell-based, Homo sapiens; details: kms-12-pe;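 also: growth inhibition of human KMS-12-PE cells, measured with a cell viability assay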
Description: SANGER: Inhibition of human KMS-12-PE cell growth in a cell viability assay.

[30] = tested on: REH; type: functional, cell-based, Homo sapiens; details: reh;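 also: growth inhibition of REH cells determined with a cell viability read-out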
Description: SANGER: Inhibition of human REH cell growth in a cell viability assay.

[31] = tested on: D-263MG; type: functional, cell-based, Homo sapiens; details: d-263mg
Description: SANGER: Inhibition of human D-263MG cell growth in a cell viability assay.

[32] = tested on: CAL-85-1; type: functional, cell-based, Homo sapiens; details: cal-85-1;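 also: growth inhibition of human CAL-85-1 cells, read out with a cell viability assay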
Description: SANGER: Inhibition of human CAL-85-1 cell growth in a cell viability assay.

[33] = tested on: EW-18; type: functional, cell-based, Homo sapiens; details: ew-18;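 also: growth inhibition of EW-18 cells, read out by a cell viability assay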
Description: SANGER: Inhibition of human EW-18 cell growth in a cell viability assay.

[34] = tested on: ETK-1; type: functional, cell-based, Homo sapiens; details: etk-1;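 also: growth inhibition of human ETK-1 cells, read out with a cell viability assay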
Description: SANGER: Inhibition of human ETK-1 cell growth in a cell viability assay.

[35] = tested on: SK-MEL-2; type: functional, cell-based, Homo sapiens; details: sk-mel-2;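 also: growth inhibition of human SK-MEL-2 cells measured with a cell viability assay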
Description: SANGER: Inhibition of human SK-MEL-2 cell growth in a cell viability assay.

[36] = tested on: NY; type: functional, cell-based, Homo sapiens; details: ny
Description: SANGER: Inhibition of human NY cell growth in a cell viability assay.

[37] = tested on: MDA-MB-134-VI; type: functional, cell-based, Homo sapiens; details: mda-mb-134-vi
Description: SANGER: Inhibition of human MDA-MB-134-VI cell growth in a cell viability assay.

[38] = tested on: DMS-153; type: functional, cell-based, Homo sapiens; details: dms-153
Description: SANGER: Inhibition of human DMS-153 cell growth in a cell viability assay.

[39] = tested on: MPP-89; type: functional, cell-based, Homo sapiens; details: mpp-89;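 also: growth inhibition of human MPP-89 cells, read out with a cell viability assay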
Description: SANGER: Inhibition of human MPP-89 cell growth in a cell viability assay.

[40] = tested on: PA-1; type: functional, cell-based, Homo sapiens; details: pa-1;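 also: IC50 for suppression of PA-1 cell proliferation, determined with a cell viability read-out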
Description: SANGER: Inhibition of human PA-1 cell growth in a cell viability assay.

[41] = tested on: MC-CAR; type: functional, cell-based, Homo sapiens; details: mc-car;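 also: growth inhibition of the human MC-CAR cell line, read out by a cell viability assay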
Description: SANGER: Inhibition of human MC-CAR cell growth in a cell viability assay.

[42] = tested on: SW1783; type: functional, cell-based, Homo sapiens; details: sw1783;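 also: cell growth inhibition measured with a viability assay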
Description: SANGER: Inhibition of human SW1783 cell growth in a cell viability assay.

[43] = tested on: U-251; type: functional, cell-based, Homo sapiens; details: u-251;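 also: growth inhibition of human U-251 cells, read out through a cell viability assay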
Description: SANGER: Inhibition of human U251 cell growth in a cell viability assay.

[44] = tested on: A2058; type: functional, cell-based, Homo sapiens; details: a2058;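 also: reduction of A2058 cell growth, read out with a viability assay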
Description: SANGER: Inhibition of human A2058 cell growth in a cell viability assay.

[45] = tested on: CTB-1; type: functional, cell-based, Homo sapiens; details: ctb-1
Description: SANGER: Inhibition of human CTB-1 cell growth in a cell viability assay.

[46] = tested on: SF-126; type: functional, cell-based, Homo sapiens; details: sf-126;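 also: growth inhibition of human SF126 cells, read out with a cell viability assay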
Description: SANGER: Inhibition of human SF126 cell growth in a cell viability assay.

[47] = tested on: RS4-11; type: functional, cell-based, Homo sapiens; details: rs4-11;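 also: growth inhibition of RS4-11 cells, read out by a cell viability assay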
Description: SANGER: Inhibition of human RS4-11 cell growth in a cell viability assay.

[48] = tested on: DJM-1; type: functional, cell-based, Homo sapiens; details: djm-1;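 also: growth inhibition of human DJM-1 cells, read out by a cell viability assay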
Description: SANGER: Inhibition of human DJM-1 cell growth in a cell viability assay.

In the case of BLEOMYCIN, the pIC50 [1] was 6.22, the pIC50 [2] was 6.59 and the pIC50 [3] was 5.90. The pIC50 [4] was 5.04, the pIC50 [5] was 5.84 and the pIC50 [6] was 5.16. The pIC50 [7] was 5.68, the pIC50 [8] was 8.58 and the pIC50 [9] was 5.63. The pIC50 [10] was 6.59, the pIC50 [11] was 6.10 and the pIC50 [12] was 4.96. It also gave a pIC50 [13] of 4.65, a pIC50 [14] of 3.07 and a pIC50 [15] of 4.00. The pIC50 [16] was 1.96, the pIC50 [17] was 5.63 and the pIC50 [18] was 4.89. The pIC50 [19] was 3.08, the pIC50 [20] was 7.12 and the pIC50 [21] was 5.70. It also gave a pIC50 [22] of 6.37, a pIC50 [23] of 2.61 and a pIC50 [24] of 6.38. For the same sequence, the pIC50 [25] was 6.86, the pIC50 [26] was 4.76 and the pIC50 [27] was 5.66. The pIC50 [28] was 6.83, the pIC50 [29] was 2.60 and the pIC50 [30] was 7.87. It also gave a pIC50 [31] of 3.85, a pIC50 [32] of 9.75 and a pIC50 [33] of 4.12. The pIC50 [34] was 7.09, the pIC50 [35] was 5.07 and the pIC50 [36] was 5.23. For the same sequence, the pIC50 [37] was 3.47, the pIC50 [38] was 3.78 and the pIC50 [39] was 4.40. It also gave a pIC50 [40] of 5.70, a pIC50 [41] of 5.85 and a pIC50 [42] of 6.60. The pIC50 [43] was 5.36, the pIC50 [44] was 6.09 and the pIC50 [45] was 7.57. For the same sequence, the pIC50 [46] was 5.51, the pIC50 [47] was 8.78 and the pIC50 [48] was 5.95.
